The record followed here is patent publication US7018987B1 (priority 1998, dated 2006).

Data set [1] has as its system eight bacteria and two fungi tested. Kind of data set: Disk susceptibility testing, whole microbe panel. Type of data set: cell-based. The note with it: at 100 μg/disk, eight bacteria and two fungi.
The subject of another data set is FADU. Format: cell-based, Human. As to conditions: FADU, 48 hours.
In a further data set the test system is DU-145. Format: cell-based, Human. The note with it: DU-145, 48 hours.
For the next data set, the system named is NCI-H460. Format: cell-based, Human. The note with it: NCI-H460, 48 hours.
The subject of a further data set is SK-N-SH. Type of data set: cell-based, Human. As to conditions: SK-N-SH, 48 hours.
The next data set is described as follows: Solubility in water. The note with it: mg per 1 ml water at 25° C.
The test system of data set [2] is P388 lymphocytic leukemia. Format: cell-based, Murine. As to conditions: murine P-388 leukemia, 48 hours.
A further data set relates to BXPC-3. Type of data set: cell-based, Human. As to conditions: BXPC-3, 48 hours.
The subject of another data set is SW1736. Type of data set: cell-based, Human. The note with it: SW1736, 48 hours.
The subject of a further data set is SK-Mel-3. Format: cell-based, Human. As to conditions: SK-Mel-3, 48 hours.

In general, Solubility refers to the concentration that dissolves in the medium under given conditions. Higher therefore signals much dissolved substance. For the molecule `COc1ccc(/C=C\c2cc(OC)c(OC)c(OC)c2)cc1OP(=O)([O-])[O-].[Mg+2]` [Compound 5d, Magnesium combretastatin A-4 3-O-phosphate], the “Microbe(s) inhibited” value in data set [1] is “* (At 100 μg/disk no inhibition of the eight bacteria and two fungi tested.)”. For the same molecule, in the data set with FADU, the “GI50 Pharynx FADU” value came out at 0.031 µg/mL. Moreover, the “GI50 Prostate DU-145” value in the data set with DU-145 came out at 0.01 µg/mL. For the same molecule, the “GI50 Lung-NSC NCI-H460” value in the data set with NCI-H460 worked out at 0.017 µg/mL. Moreover, the “GI50 Neuroblast SK-N-SH” value in the data set on SK-N-SH came out at 0.01 µg/mL. Besides, the “Solubility” value in “Solubility in water” was 7 mg/mL. For the same molecule, the “ED50 P-388” value in data set [2] was determined as 0.0018 µg/mL. The “GI50 Pancreas BXPC-3” value in the data set with BXPC-3 was found to be 0.43 µg/mL. For the same molecule, the “GI50 Thyroid SW1736” value in the data set on SW1736 was 6.8 µg/mL.
On to “Adenosine combretastatin A-4 3′-O-phosphate [Compound 5m]”, for which the “Microbe(s) inhibited” value in [1] was “* (At 100 μg/disk no inhibition of the eight bacteria and two fungi tested.)”. In addition, the “GI50 Pharynx FADU” value with FADU was 0.032 µg/mL. For the same molecule, the “GI50 Prostate DU-145” value in the data set with DU-145 amounted to 0.036 µg/mL. For the same molecule, in the data set with NCI-H460, the “GI50 Lung-NSC NCI-H460” value turned out to be 0.038 µg/mL. In addition, the “GI50 Neuroblast SK-N-SH” value in the data set with SK-N-SH was 0.034 µg/mL. In addition, the “ED50 P-388” value in [2] came to 0.16 µg/mL. Also, the “GI50 Melanoma SK-Mel-3” value in the data set on SK-Mel-3 was 0.35 µg/mL. Also, in the data set with BXPC-3, the “GI50 Pancreas BXPC-3” value came out at 11.6 µg/mL. Also, the “GI50 Thyroid SW1736” value with SW1736 is 0.092 µg/mL.
Regarding “Calcium combretastatin A-4 3′-O-phosphate [Compound 5a]”, the “Microbe(s) inhibited” value in data set [1] was “* (At 100 μg/disk no inhibition of the eight bacteria and two fungi tested.)”. Moreover, in the data set on FADU, the “GI50 Pharynx FADU” value amounted to 0.001 µg/mL. The “GI50 Prostate DU-145” value with DU-145 turned out to be 0.001 µg/mL. Further, the “GI50 Lung-NSC NCI-H460” value in the data set with NCI-H460 is 0.001 µg/mL. Also, in the data set with SK-N-SH, the “GI50 Neuroblast SK-N-SH” value came out at 0.015 µg/mL. Besides, in data set [2], the “ED50 P-388” value worked out at 0.0011 µg/mL. Further, in the data set with SK-Mel-3, the “GI50 Melanoma SK-Mel-3” value was 0.0036 µg/mL. Further, in the data set with BXPC-3, the “GI50 Pancreas BXPC-3” value is 0.22 µg/mL. Also, the “GI50 Thyroid SW1736” value in the data set with SW1736 stood at 0.010 µg/mL.
Turning to “Cesium combretastatin A-4 3′-O-phosphate [Compound 5b]”, the “Microbe(s) inhibited” value in data set [1] was “* (At 100 μg/disk no inhibition of the eight bacteria and two fungi tested.)”. In the data set with FADU, the “GI50 Pharynx FADU” value is 0.0023 µg/mL. Further, the “GI50 Prostate DU-145” value in the data set with DU-145 stood at 0.0028 µg/mL. The “GI50 Lung-NSC NCI-H460” value in the data set with NCI-H460 was 0.0032 µg/mL. Besides, the “GI50 Neuroblast SK-N-SH” value in the data set on SK-N-SH was found to be 0.011 µg/mL. The “Solubility” value in “Solubility in water” was above 50 mg/mL. The “ED50 P-388” value in data set [2] was found to be 0.001 µg/mL. Also, the “GI50 Melanoma SK-Mel-3” value in the data set with SK-Mel-3 was 0.0043 µg/mL. In addition, the “GI50 Pancreas BXPC-3” value in the data set on BXPC-3 was 0.31 µg/mL. In addition, in the data set with SW1736, the “GI50 Thyroid SW1736” value came to 8.4 µg/mL.
On to “Glucosamine combretastatin A-4 3′-O-phosphate [Compound 5o]”, for which the “Microbe(s) inhibited” value in data set [1] was “* (At 100 μg/disk no inhibition of the eight bacteria and two fungi tested.)”. In addition, in the data set on FADU, the “GI50 Pharynx FADU” value amounted to 0.015 µg/mL. Also, the “GI50 Prostate DU-145” value with DU-145 came to 0.026 µg/mL. Also, in the data set with NCI-H460, the “GI50 Lung-NSC NCI-H460” value amounted to 0.034 µg/mL. For the same molecule, in the data set on SK-N-SH, the “GI50 Neuroblast SK-N-SH” value was determined as 0.016 µg/mL. The “Solubility” value in the data set “Solubility in water” was 15 mg/mL. Moreover, in data set [2], the “ED50 P-388” value stood at 0.0164 µg/mL. The “GI50 Pancreas BXPC-3” value in the data set with BXPC-3 worked out at 4.5 µg/mL. Moreover, the “GI50 Thyroid SW1736” value in the data set with SW1736 stood at 0.061 µg/mL.
For the molecule “Imidazole combretastatin A-4 3-O-phosphate [Compound 5g]”, the “Microbe(s) inhibited” value in [1] was “* (At 100 μg/disk no inhibition of the eight bacteria and two fungi tested.)”. In addition, the “GI50 Pharynx FADU” value in the data set with FADU came out at 0.01 µg/mL. Besides, in the data set on DU-145, the “GI50 Prostate DU-145” value is 0.001 µg/mL. Besides, the “GI50 Lung-NSC NCI-H460” value with NCI-H460 worked out at 0.004 µg/mL. The “GI50 Neuroblast SK-N-SH” value with SK-N-SH was 0.01 µg/mL. Also, the “ED50 P-388” value in data set [2] was determined as 0.0025 µg/mL. Further, the “GI50 Melanoma SK-Mel-3” value in the data set on SK-Mel-3 amounted to 0.01 µg/mL. In addition, the “GI50 Pancreas BXPC-3” value with BXPC-3 was determined as 0.39 µg/mL. Besides, in the data set with SW1736, the “GI50 Thyroid SW1736” value amounted to 0.011 µg/mL.
Regarding “Lithium combretastatin A-4 3-O-phosphate [Compound 5c]”, in [1], the “Microbe(s) inhibited” value is “* (At 100 μg/disk no inhibition of the eight bacteria and two fungi tested.)”. Besides, the “GI50 Pharynx FADU” value with FADU came to 0.003 µg/mL. In addition, the “GI50 Prostate DU-145” value in the data set with DU-145 is 0.0025 µg/mL. For the same molecule, in the data set on NCI-H460, the “GI50 Lung-NSC NCI-H460” value turned out to be 0.004 µg/mL. In addition, the “GI50 Neuroblast SK-N-SH” value with SK-N-SH amounted to 0.016 µg/mL. Moreover, the “ED50 P-388” value in [2] turned out to be 0.0012 µg/mL. In addition, the “GI50 Pancreas BXPC-3” value with BXPC-3 was 0.31 µg/mL. Also, the “GI50 Thyroid SW1736” value in the data set with SW1736 turned out to be 0.030 µg/mL.
Regarding “Morpholine combretastatin A-4 3′-O-phosphate [Compound 5h]”, the “Microbe(s) inhibited” value in data set [1] is “* (At 100 μg/disk no inhibition of the eight bacteria and two fungi tested.)”. For the same molecule, the “GI50 Pharynx FADU” value in the data set on FADU stood at 0.0016 µg/mL. Moreover, in the data set with DU-145, the “GI50 Prostate DU-145” value is 0.0024 µg/mL. In addition, in the data set with NCI-H460, the “GI50 Lung-NSC NCI-H460” value was 0.003 µg/mL. Further, the “GI50 Neuroblast SK-N-SH” value with SK-N-SH was 0.039 µg/mL. In addition, in data set [2], the “ED50 P-388” value is 0.0023 µg/mL. Moreover, the “GI50 Melanoma SK-Mel-3” value in the data set with SK-Mel-3 stood at 0.0042 µg/mL. The “GI50 Pancreas BXPC-3” value in the data set with BXPC-3 is 0.26 µg/mL. Moreover, the “GI50 Thyroid SW1736” value with SW1736 was determined as 0.02 µg/mL.
“Piperidine combretastatin A-4 3′-O-phosphate [Compound 5j]”: the “Microbe(s) inhibited” value in data set [1] was “* (At 100 μg/disk no inhibition of the eight bacteria and two fungi tested.)”. Besides, the “GI50 Pharynx FADU” value in the data set with FADU amounted to 0.01 µg/mL. The “GI50 Prostate DU-145” value in the data set on DU-145 worked out at 0.01 µg/mL. For the same molecule, the “GI50 Lung-NSC NCI-H460” value with NCI-H460 worked out at 0.01 µg/mL. In addition, the “GI50 Neuroblast SK-N-SH” value in the data set with SK-N-SH turned out to be 0.017 µg/mL. The “Solubility” value in “Solubility in water” is 5 mg/mL. Besides, in [2], the “ED50 P-388” value is 0.0029 µg/mL. In addition, the “GI50 Melanoma SK-Mel-3” value with SK-Mel-3 turned out to be 0.01 µg/mL. Besides, the “GI50 Pancreas BXPC-3” value in the data set with BXPC-3 came to 0.30 µg/mL. Further, the “GI50 Thyroid SW1736” value with SW1736 turned out to be 0.50 µg/mL.
As for “Pyrazole combretastatin A-4 3-O-phosphate [Compound 5k]”, the “Microbe(s) inhibited” value in [1] is “* (At 100 μg/disk no inhibition of the eight bacteria and two fungi tested.)”. For the same molecule, the “GI50 Pharynx FADU” value in the data set on FADU worked out at 0.01 µg/mL. Besides, in the data set on DU-145, the “GI50 Prostate DU-145” value came out at 0.01 µg/mL. Also, the “GI50 Lung-NSC NCI-H460” value in the data set with NCI-H460 came out at 0.01 µg/mL. Further, the “GI50 Neuroblast SK-N-SH” value in the data set with SK-N-SH came out at 0.014 µg/mL. The “ED50 P-388” value in data set [2] turned out to be 0.0023 µg/mL. In addition, the “GI50 Melanoma SK-Mel-3” value in the data set on SK-Mel-3 came to 0.01 µg/mL. Besides, the “GI50 Pancreas BXPC-3” value with BXPC-3 was 0.23 µg/mL. Moreover, the “GI50 Thyroid SW1736” value in the data set on SW1736 stood at 4.6 µg/mL.
Consider “Quinine combretastatin A-4 3′-O-phosphate [Compound 5p]”, for which, in [1], the “Microbe(s) inhibited” value is “* (At 100 μg/disk no inhibition of the eight bacteria and two fungi tested.)”. Also, in the data set on FADU, the “GI50 Pharynx FADU” value is 0.006 µg/mL. Moreover, in the data set with DU-145, the “GI50 Prostate DU-145” value was found to be 0.0048 µg/mL. Moreover, the “GI50 Lung-NSC NCI-H460” value in the data set with NCI-H460 was found to be 0.0042 µg/mL. The “ED50 P-388” value in [2] came to 0.027 µg/mL. The “GI50 Pancreas BXPC-3” value with BXPC-3 worked out at 2.2 µg/mL. Further, the “GI50 Thyroid SW1736” value in the data set with SW1736 is 7.5 µg/mL.
